# Earlier results as cited in patent publication US10285382B2 (priority 2017, dated 2019).
# Where two headings read alike, the source gives them in different places.
# Experiments:
# Conditions in all cases: cited from earlier work
# Salmonella = system: Salmonella
# broiler eggs = system: broiler eggs
# shell surface bacteria = system: shell surface bacteria
# [1] = dipping eggs in 6% H2O2 solution twice, Padron (1995)
smiles,measurement,setting,value
"OO [H2O2, hydrogen peroxide]",treated eggs remaining contaminated,"Salmonella; […] solution applied with a vacuum and a surfactant, Cox et al.",30%
same,reduction of the number of Salmonella in eggshell membranes,Salmonella; [1],95%
same,reduction of the numbers of positive eggs,Salmonella; [1],55%
same,effect on hatchability,"broiler eggs; broiler eggs, […] fogged, Bailey et al. (1996)","did not significantly reduce, or improve"
same,effect on hatchability,broiler eggs; in vivo,no adverse effect
same,log reduction in bacterial counts (cfu/egg),"shell surface bacteria; 3% solution combined with ultraviolet light, Wells et al. (2010)",≤ 3 log
same,H2O2 concentration required to disinfect shell surfaces,shell surface bacteria; Sheldon and Brake (1991),5 % (vol/vol)
